# Patent publication EP3319959B1, “HETERO-HALO INHIBITORS OF HISTONE DEACETYLASE” (Alkermes, Inc., priority 2015, dated 2017)
# Columns and labels:
# HDAC2 [1] = target: T1, HDAC2 (Homo sapiens, UniProt Q92769); test: Reporter displacement assay (HDAC2); type: binding; settings: 20 nM HDAC2, 180 nM reporter probe, read after 4 hours; Kd by Cheng Prusoff equation
# T1 construct: purchased Proteros
# Method: HDAC2 containing a C-terminal HIS-Tag (Proteros) and fluorescently-labeled anti-HIS-antibody are diluted in one vial in assay buffer 50 mM Tris, pH 8.0, 1 mM DTT, 150 mM NaCl, and 0.01% Tween20. Components are pre-incubated for 30 min, then a small volume of reporter probe (Proteros) is added from a highly concentrated stock and incubation is continued for another 30 min. […] Ten µl/well of pre-formed complex are transferred into 384 well assay plates (Corning). Compounds to be profiled are serially diluted from 1x10^1 - 5.7x10^-5 mM in DMSO and 60 nl are added to assay plates by pintool transfer (CybiWell, Cybio). Fluorescence intensity signal is read after 4 hours in a Pherastar FS (BMG Labtech) at 337/665 nm. For Kd determination, percent probe displacement values are calculated for each compound concentration and plotted against the compound concentration. […] Since the reporter probe is used at a concentration reflecting its own Kd value, compound Kd values can be calculated according to the Cheng Prusoff equation. […] Table 4. HDAC1 and HDAC2 Kd Values for Exemplary Compounds Useful in the Invention
# HDAC1 = HDAC1 (Homo sapiens, UniProt Q13547); test: Reporter displacement assay (HDAC1); type: binding
# HDAC1, sequence (Q13547 whole entry): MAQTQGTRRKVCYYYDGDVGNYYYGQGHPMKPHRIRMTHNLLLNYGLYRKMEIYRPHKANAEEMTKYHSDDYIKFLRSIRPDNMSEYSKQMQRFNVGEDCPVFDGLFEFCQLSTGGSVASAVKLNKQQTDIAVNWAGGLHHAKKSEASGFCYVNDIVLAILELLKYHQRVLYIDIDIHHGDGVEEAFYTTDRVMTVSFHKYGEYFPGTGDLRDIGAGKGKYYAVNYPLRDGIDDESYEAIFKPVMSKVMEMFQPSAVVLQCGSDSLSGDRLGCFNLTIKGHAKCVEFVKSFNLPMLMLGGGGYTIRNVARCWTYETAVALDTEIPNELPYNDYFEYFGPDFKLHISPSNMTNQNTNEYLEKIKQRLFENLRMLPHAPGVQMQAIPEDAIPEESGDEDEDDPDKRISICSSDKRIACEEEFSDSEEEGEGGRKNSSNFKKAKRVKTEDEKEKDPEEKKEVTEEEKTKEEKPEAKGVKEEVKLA
# HDAC2 [2] = target: T1, HDAC2; test: Reporter displacement assay (HDAC2); type: binding
# recombinant human HDACs = test: HDAC enzymatic assay (LabChip capillary electrophoresis); type: biochemical; settings: 5 nM HDAC enzyme, 1 uM substrate, 5 hours pre-incubation, 17 hours reaction at 25°C; isoform not given
# Outline: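 Recombinant human HDAC (5 nM) was pre-incubated with compound for 5 h at 25 °C, then reacted with 1 µM FAM-TSRHK(Ac)KL substrate for 17 h at 25 °C in HEPES pH 7.5, 1% DMSO. Reactions were stopped with SDS, and substrate and product were separated by capillary electrophoresis and read as P/(S+P). IC50 was fitted by 4-parameter logistic from 12-point 3-fold dilutions starting at 30 µM, run in duplicate.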
# SH-SY5Y cells = test: Cell assay in SH-SY5Y cells with HDAC-Glo 2 reagent; type: cell-based; settings: Homo sapiens, 5 h, five hours at 37°C, CI-994 at 100 uM defined as 100% inhibition
# Method: SH-SY5Y cells (Sigma) were cultured in Eagle's Modified Essential Medium supplemented with 10% fetal bovine serum and pen/strep. Twenty-four hours prior to compound dosing 20 uL of cells were plated in white 384 well plates at a density of 1,500 cells/well. Compounds were serially diluted in neat DMSO and then diluted 1:100 v/v into media without FBS and mixed. Media was removed from the plated cells and the diluted compounds in serum free media (1% v/v final DMSO) were added and incubated at 37°C for five hours. Ten uL of HDAC-Glo 2 reagent with 0.1% Triton X-100 was then added, the plate was mixed and allowed to develop at room temperature for 100 minutes. Plates were then read with a Spectramax LMax luminometer employing a 0.4s integration time. Dose response curves were constructed with normalized data where CI-994 at 100 uM was defined as 100% inhibition and DMSO alone as 0% inhibition. Table 5. IC50 and EC50 Values for Exemplary Compounds Useful in the Invention
# T1 sequence (Q92769 whole entry): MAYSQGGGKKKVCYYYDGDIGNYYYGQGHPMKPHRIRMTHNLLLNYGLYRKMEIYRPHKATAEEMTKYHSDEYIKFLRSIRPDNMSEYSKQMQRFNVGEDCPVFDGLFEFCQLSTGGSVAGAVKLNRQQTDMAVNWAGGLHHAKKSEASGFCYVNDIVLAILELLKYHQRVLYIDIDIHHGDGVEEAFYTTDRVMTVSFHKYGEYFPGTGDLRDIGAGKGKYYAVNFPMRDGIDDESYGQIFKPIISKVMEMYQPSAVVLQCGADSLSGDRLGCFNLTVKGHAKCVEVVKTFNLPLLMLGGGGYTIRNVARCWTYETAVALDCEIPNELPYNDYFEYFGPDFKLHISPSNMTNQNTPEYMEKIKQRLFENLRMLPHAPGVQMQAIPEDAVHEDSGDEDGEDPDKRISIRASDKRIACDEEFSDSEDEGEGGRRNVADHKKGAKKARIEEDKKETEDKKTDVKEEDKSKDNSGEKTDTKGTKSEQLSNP
SMILES,Kd (HDAC2 [1]) [nM],Kd (HDAC1) [nM],residence time (HDAC1) [min],residence time (HDAC2 [2]) [min],IC50 (recombinant human HDACs) [nM],EC50 (SH-SY5Y cells) [nM]
Nc1cc(F)c(-c2ccc(F)cc2)cc1NC(=O)N1Cc2ccncc2C1 [Compound 100],100 to 500,100 to 500,196,703,,
Nc1nn(-c2ccccc2)cc1NC(=O)N1Cc2ccncc2C1 [Compound 101],> 5000,> 5000,,,,
Nc1nn(-c2ccc(F)cc2)cc1NC(=O)N1Cc2ccncc2C1 [Compound 102],> 5000,> 5000,,,,
Nc1nn(-c2ccncc2)cc1NC(=O)N1Cc2ccncc2C1 [Compound 103],> 5000,> 5000,,,,
Nc1ncc(-c2ccc(F)cc2)cc1NC(=O)N1CC2CCCC2C1 (centres unmarked) [Compound 104],> 5000,> 5000,,,,
Nc1cnc(-c2ccc(F)cc2)cc1NC(=O)N1CCCC1 [Compound 105],500 to 5000,500 to 5000,851,634,,
Nc1cnc(-c2ccc(F)cc2)cc1NC(=O)C1CCOCC1 [Compound 106],> 5000,> 5000,121,,,
Nc1ccc(-c2ccc(F)cc2)nc1NC(=O)N1CCCC1 [Compound 107],500 to 5000,500 to 5000,653,1280,,
Nc1cnc(-c2ccncc2)cc1NC(=O)N1CCCC1 [Compound 108],500 to 5000,500 to 5000,401,1430,,
Nc1ccc(-c2ccc(F)cc2)nc1NC(=O)C1CCOCC1 [Compound 109],500 to 5000,> 5000,14,264,,
Nc1cnc(-c2ccc(F)cc2)nc1NC(=O)N1CCCC1 [Compound 110],> 5000,500 to 5000,688,,,
Nc1ccc(-c2ccncc2)nc1NC(=O)N1CCCC1 [Compound 111],> 5000,> 5000,151,540,,
Nc1ccc(-c2ccc(F)cc2)c(F)c1NC(=O)N1CCCC1 [Compound 112],100 to 500,100 to 500,329,790,,
Nc1ccc(-c2ccc(F)cc2)c(F)c1NC(=O)N1Cc2nccnc2C1 [Compound 113],100 to 500,< 100,350,609,,
Nc1cc(F)c(-c2ccc(F)cc2)cc1NC(=O)N1CCCC1 [Compound 114],> 5000,> 5000,49,,,
Nc1cc(F)c(-c2ccc(F)cc2)cc1NC(=O)C1CCOCC1 [Compound 115],500 to 5000,> 5000,,185,,
Nc1cc(F)c(-c2ccc(F)c(F)c2)cc1NC(=O)N1CCCC1 [Compound 116],500 to 5000,500 to 5000,87,114,,
Nc1ccc(-c2ccc(F)c(F)c2)c(F)c1NC(=O)N1CCCC1 [Compound 117],> 5000,> 5000,,42,,
Nc1ccc(-c2ccc(F)cc2)c(F)c1NC(=O)C1CCOCC1 [Compound 118],500 to 5000,500 to 5000,69,176,,
Nc1cc(F)c(-c2ccc(F)cc2)cc1NC(=O)N1Cc2nccnc2C1 [Compound 119],100 to 500,100 to 500,126,1200,,
Nc1ccc(-c2ccc(F)cc2)nc1NC(=O)N1Cc2nccnc2C1 [Compound 120],500 to 5000,100 to 500,830,1170,,
Nc1cnc(-c2ccc(F)cc2)nc1NC(=O)N1Cc2nccnc2C1 [Compound 121],> 5000,500 to 5000,682,1200,,
Nc1cn(-c2ccccc2)nc1NC(=O)N1Cc2ccncc2C1 [Compound 122],100 to 500,100 to 500,572,2380,,
CN1CC=C(c2cnc3c(c2)CN(C(=O)Nc2nc(-c4cccs4)ccc2N)C3)CC1 [Compound 251],,,,,100 to 500,100 to 500
CN1CCC(c2cnc3c(c2)CN(C(=O)Nc2nc(-c4ccc(F)cc4)ccc2N)C3)CC1 [Compound 252],,,,,100 to 500,100 to 500
CN1CC=C(c2cnc3c(c2)CN(C(=O)Nc2nc(-c4ccc(F)cc4)ccc2N)C3)CC1 [Compound 253],,,,,100 to 500,100 to 500
Cn1cc2c(n1)CN(C(=O)Nc1nc(-c3ccc(F)cc3)ccc1N)C2 [Compound 257],,,,,100 to 500,100 to 500
Cn1ncc2c1CN(C(=O)Nc1nc(-c3ccc(F)cc3)ccc1N)C2 [Compound 258],,,,,500 to 5000,500 to 5000
Nc1ccc(-c2ccc(F)cc2)nc1NC(=O)N1Cc2cnc(CN3CC(F)(F)C3)cc2C1 [Compound 266],,,,,500 to 5000,500 to 5000

# Results, then the compound that gave them:
Kd (HDAC2 [1]) [nM],Kd (HDAC1) [nM],residence time (HDAC1) [min],residence time (HDAC2 [2]) [min],IC50 (recombinant human HDACs) [nM],EC50 (SH-SY5Y cells) [nM],SMILES
,,,,500 to 5000,500 to 5000,CN1CCC(c2cnc3c(c2)CN(C(=O)Nc2nc(-c4cccnc4)ccc2N)C3)CC1 [Compound 265]
,,,,> 5000,> 5000,Nc1ccc(-c2ccc(F)cc2)nc1NC(=O)N1C[C@@H]2[C@H](C1)[C@H]2NC1COC1 [Compound 267]
,,,,> 5000,> 5000,CN1CC(CN2C[C@@H]3[C@H](C2)[C@H]3C(=O)Nc2nc(-c3ccc(F)cc3)ccc2N)C1 [Compound 268]
,,,,> 5000,> 5000,CN1CCN(C[C@@H]2[C@H]3CN(C(=O)Nc4nc(-c5ccc(F)cc5)ccc4N)C[C@@H]23)CC1 [Compound 269]
,,,,> 5000,> 5000,Nc1ccc(-c2ccc(F)cc2)nc1NC(=O)N1C[C@@H]2[C@@H](CN3CCC3)[C@@H]2C1 [Compound 270]
,,,,500 to 5000,500 to 5000,Nc1ccc(-c2ccc(F)cc2)nc1NC(=O)N1Cc2cc(CN3CC(F)(F)C3)cnc2C1 [Compound 271]
,,,,100 to 500,100 to 500,Nc1ccc(-c2ccc(F)cc2)nc1NC(=O)N1Cc2cc(CN3CCC3)cnc2C1 [Compound 272]
,,,,100 to 500,100 to 500,Nc1ccc(-c2ccc(F)cc2)nc1NC(=O)N1Cc2cc(CN3CCC(F)(F)C3)cnc2C1 [Compound 273]
,,,,100 to 500,100 to 500,CC(C)Cc1cnc2c(c1)CN(C(=O)Nc1nc(-c3ccc(F)cc3)ccc1N)C2 [Compound 274]
,,,,100 to 500,100 to 500,Nc1ccc(-c2ccc(F)cc2)nc1NC(=O)N1Cc2cc(CN3CC(F)C3)cnc2C1 [Compound 275]
,,,,500 to 5000,500 to 5000,COC[C@@H]1[C@H]2CN(C(=O)Nc3nc(-c4ccc(F)cc4)ccc3N)C[C@@H]12 [Compound 276]
,,,,500 to 5000,500 to 5000,Nc1ccc(-c2ccc(F)cc2)nc1NC(=O)N1Cc2cncnc2C1 [Compound 277]
,,,,100 to 500,500 to 5000,Nc1ccc(-c2ccc(F)cc2)nc1NC(=O)N1Cc2ccc(CO)cc2C1 [Compound 366]
,,,,100 to 500,500 to 5000,CN1CCN(Cc2ccc3c(c2)CN(C(=O)Nc2nc(-c4ccc(F)cc4)ccc2N)C3)CC1 [Compound 367]
,,,,100 to 500,500 to 5000,CN(C)Cc1ccc2c(c1)CN(C(=O)Nc1nc(-c3ccc(F)cc3)ccc1N)C2 [Compound 371]
,,,,100 to 500,500 to 5000,Nc1ccc(-c2ccc(F)cc2)nc1NC(=O)N1Cc2ccncc2C1 [Compound 373]
,,,,100 to 500,100 to 500,CN1CCN(c2ccc3c(n2)CN(C(=O)Nc2nc(-c4ccc(F)cc4)ccc2N)C3)CC1 [Compound 391]
,,,,> 5000,500 to 5000,Nc1ccc(-c2cccnc2)nc1NC(=O)N1Cc2ccc(CO)cc2C1 [Compound 395]
,,,,100 to 500,100 to 500,Nc1ccc(-c2ccc(F)cc2)nc1NC(=O)N1Cc2cccnc2C1 [Compound 397]
,,,,100 to 500,100 to 500,Nc1ccc(-c2ccc(F)cc2)nc1NC(=O)N1Cc2ccc(CN3CCCC3)cc2C1 [Compound 405]
